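96-well plates; 48 h exposure; 5 concentrations. Endpoints by linear interpolation between flanking doses. Not reached: highest tested concentration assigned. The concentration for 50% growth inhibition is given as GI50.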 Calls of active or inactive are those of the source. Rule as the data show it: active = GI50 up to about 1.1 µM and inactive = higher.
Key:
Experiment in all cases: inhibition of tumour cell growth, NCI panel, 48 h
ACHN = system: ACHN
DLD-1 = system: DLD-1
HL-60 = system: HL-60
M19-MEL = system: M19-MEL
NCI-H460 = system: NCI-H460
OVCAR-8 = system: OVCAR-8
SNB-78 = system: SNB-78
SR = system: SR
TK-10 = system: TK-10
MCF7 = system: MCF7
NCI/ADR-RES = system: NCI/ADR-RES
SF-539 = system: SF-539
786-0 = system: 786-0
M14 = system: M14

| SMILES | GI50 (ACHN) | GI50 (DLD-1) | GI50 (HL-60) | GI50 (M19-MEL) | GI50 (NCI-H460) | GI50 (OVCAR-8) | GI50 (SNB-78) | GI50 (SR) | GI50 (TK-10) | GI50 (MCF7) | GI50 (NCI/ADR-RES) | GI50 (SF-539) | GI50 (786-0) | GI50 (M14) |
| --- | --- | --- | --- | --- | --- | --- | --- | --- | --- | --- | --- | --- | --- | --- |
| COc1cc(/C=C/C2=C(C#N)C(=O)OC2(C)C)ccc1O | 34.2 µM (inactive) | 54 µM (inactive) | 22.4 µM (inactive) | > 100 µM (inactive) | 38.9 µM (inactive) | 51.8 µM (inactive) | > 100 µM (inactive) | 14.2 µM (inactive) | > 100 µM (inactive) |  |  |  |  |  |
| ClCc1nnc2n1-c1ccc(Cl)cc1SC2 |  |  | 1.56 µM (inactive) | 3.23 µM (inactive) | 3.66 µM (inactive) | 4.02 µM (inactive) | 5.4 µM (inactive) |  |  | 4.2 µM (inactive) | 1.78 µM (inactive) | 3.47 µM (inactive) |  |  |
| O=C1C2Cc3ccccc3CN2C(=O)N1CN1CCCCC1 (configuration not stated) | > 100 µM (inactive) | > 100 µM (inactive) | 26.6 µM (inactive) | > 100 µM (inactive) | > 100 µM (inactive) | > 100 µM (inactive) |  | 97.5 µM (inactive) | > 100 µM (inactive) |  |  | > 100 µM (inactive) | > 100 µM (inactive) | > 100 µM (inactive) |
| O=C(O)c1ccccc1C(=O)c1ccco1 | > 100 µM (inactive) | > 100 µM (inactive) | > 100 µM (inactive) | > 100 µM (inactive) | > 100 µM (inactive) | > 100 µM (inactive) | > 100 µM (inactive) | > 100 µM (inactive) | > 100 µM (inactive) |  |  | > 100 µM (inactive) | > 100 µM (inactive) | > 100 µM (inactive) |
| NC(=O)C1(c2ccccc2)Nc2ccccc2S1 (configuration not stated) | > 100 µM (inactive) | > 100 µM (inactive) | > 100 µM (inactive) | > 100 µM (inactive) | > 100 µM (inactive) | > 100 µM (inactive) |  | > 100 µM (inactive) | > 100 µM (inactive) |  |  | > 100 µM (inactive) |  | > 100 µM (inactive) |
| COc1ccc(Sc2ccccc2N)cc1 | 56.8 µM (inactive) | 43.5 µM (inactive) | 18.8 µM (inactive) | 36.7 µM (inactive) | 52.5 µM (inactive) | 60.5 µM (inactive) | 37.8 µM (inactive) | 22.8 µM (inactive) | > 100 µM (inactive) |  |  | 29.6 µM (inactive) |  | 35.8 µM (inactive) |
| COc1cc2c(cc1OC)-c1c(cnn1C1OC(COC(C)=O)C(OC(C)=O)C(OC(C)=O)C1OC(C)=O)CC2 (configuration not stated) | > 100 µM (inactive) | > 100 µM (inactive) | 11 µM (inactive) | > 89.1 µM (inactive) | > 100 µM (inactive) | > 100 µM (inactive) | > 100 µM (inactive) | 10.5 µM (inactive) | > 100 µM (inactive) |  |  | > 100 µM (inactive) | > 100 µM (inactive) | > 100 µM (inactive) |
| COC(=O)C1CCC(=O)N1/C(C)=N/NC(=O)Nc1ccc(Cl)c(Cl)c1 (configuration not stated) | 21 µM (inactive) | > 100 µM (inactive) | > 100 µM (inactive) | > 100 µM (inactive) | > 100 µM (inactive) | > 100 µM (inactive) | > 100 µM (inactive) | > 100 µM (inactive) | 88.1 µM (inactive) |  |  | > 100 µM (inactive) | > 100 µM (inactive) | > 100 µM (inactive) |
| Nc1nnc(N)n1NC(=O)C(=O)Nc1ccc([N+](=O)[O-])cc1 | > 100 µM (inactive) | > 100 µM (inactive) | > 100 µM (inactive) | > 100 µM (inactive) | > 100 µM (inactive) | > 100 µM (inactive) | > 100 µM (inactive) | > 100 µM (inactive) | > 100 µM (inactive) |  |  | > 100 µM (inactive) |  |  |
| COc1ccc(C2C(C(=O)O)=C(COC(C)=O)Oc3cc4c(cc32)OCO4)cc1 (configuration not stated) | > 100 µM (inactive) | > 100 µM (inactive) | > 100 µM (inactive) | > 100 µM (inactive) | > 100 µM (inactive) | > 100 µM (inactive) | > 100 µM (inactive) |  | > 100 µM (inactive) |  |  |  |  | > 100 µM (inactive) |
| Nc1nn(CC(O)CO)c(=O)s1 (configuration not stated) | > 100 µM (inactive) | > 100 µM (inactive) | > 100 µM (inactive) | > 100 µM (inactive) | > 100 µM (inactive) | > 100 µM (inactive) |  | > 100 µM (inactive) | > 100 µM (inactive) |  |  | > 100 µM (inactive) |  | > 100 µM (inactive) |
| CCCNC(/C=C/[Si](C)(C)C)CO.CCCNCC(O)/C=C/[Si](C)(C)C (configuration not stated) | > 100 µM (inactive) | > 100 µM (inactive) | > 100 µM (inactive) | > 100 µM (inactive) | > 100 µM (inactive) | > 100 µM (inactive) | > 100 µM (inactive) | > 100 µM (inactive) | > 100 µM (inactive) |  |  | > 100 µM (inactive) |  | > 100 µM (inactive) |
| N#C/C(=C\c1cccc(O)c1O)C(N)=O | 26.6 µM (inactive) | 45.4 µM (inactive) | 15.5 µM (inactive) | 54.8 µM (inactive) | 29.4 µM (inactive) | 60.8 µM (inactive) | 52 µM (inactive) |  | 42.1 µM (inactive) |  |  | 34 µM (inactive) | 33.3 µM (inactive) | 67.1 µM (inactive) |
| C/C([O-])=C(/c1nc(-c2ccc([N+](=O)[O-])o2)no1)[n+]1cc(C)ccc1C |  | 11.5 µM (inactive) |  | 5.19 µM (inactive) | 4.62 µM (inactive) | 19.8 µM (inactive) | 20.7 µM (inactive) |  |  | 4.02 µM (inactive) | 35 µM (inactive) | 4.99 µM (inactive) |  |  |
| COC(=O)C1=COC2OC3/C(=C\c4ccc(O)c(OC)c4)C(=O)OC34C=CC1C24 (configuration not stated) | 15.1 µM (inactive) | 18.5 µM (inactive) | 9.18 µM (inactive) | 14.2 µM (inactive) | 17.9 µM (inactive) | 18.9 µM (inactive) | 15.2 µM (inactive) | 28.8 µM (inactive) | 17.3 µM (inactive) |  |  | 17.4 µM (inactive) |  | 3.37 µM (inactive) |
| COC1C=CC(O)C(CO)O1 (configuration not stated) | > 100 µM (inactive) | > 100 µM (inactive) | > 100 µM (inactive) | > 100 µM (inactive) | > 100 µM (inactive) | > 100 µM (inactive) | > 100 µM (inactive) | > 100 µM (inactive) | > 100 µM (inactive) |  |  | > 100 µM (inactive) |  | > 100 µM (inactive) |
| CC1C[C@]2(C[C@@H](C)C(=O)O2)OC2CC3(C)C4CCC5C(C)(C)OC(=O)CC[C@@]56C[C@@]46CC[C@]3(C)C12 (some centres not stated) | > 100 µM (inactive) | > 100 µM (inactive) | 69.8 µM (inactive) |  | > 100 µM (inactive) | > 100 µM (inactive) | > 100 µM (inactive) | > 100 µM (inactive) | > 100 µM (inactive) |  |  | > 100 µM (inactive) |  | > 100 µM (inactive) |
| COc1cc(C2c3cc4c(cc3[C@@H](Nc3ccc(N5CCOCC5)cc3)C3COC(=O)[C@H]23)OCO4)cc(OC)c1O (some centres not stated) |  | 1.55 µM (inactive) | 0.0319 µM (active) | 1.71 µM (inactive) | < 0.01 µM (active) | 1.32 µM (inactive) |  |  |  | 0.177 µM (active) | 3.96 µM (inactive) | 0.571 µM (active) |  |  |
| CCCCCCCCCCCC1=C(O)C(=O)C=C(O)C1=O [EMBELIN] |  | 8.49 µM (inactive) | 3.95 µM (inactive) |  | 2.88 µM (inactive) | 2.01 µM (inactive) | 9.66 µM (inactive) |  |  | 7.64 µM (inactive) | 6.27 µM (inactive) | 6.76 µM (inactive) |  |  |

From ChEMBL document CHEMBL1201862, “PubChem BioAssay data set” (2004)
